Data on two molecules can be found in patent publication US20170190705A1, “Compositions and Methods for Inhibiting BMP” (THE BRIGHAM AND WOMAN'S HOSPITAL, INC., priority 2014, published 2017).

Common to all, as to format: biochemical
In one experiment the target is T1, GRK7 (Homo sapiens, UniProt Q8WTQ7).
T1 sequence (Q8WTQ7 1-553): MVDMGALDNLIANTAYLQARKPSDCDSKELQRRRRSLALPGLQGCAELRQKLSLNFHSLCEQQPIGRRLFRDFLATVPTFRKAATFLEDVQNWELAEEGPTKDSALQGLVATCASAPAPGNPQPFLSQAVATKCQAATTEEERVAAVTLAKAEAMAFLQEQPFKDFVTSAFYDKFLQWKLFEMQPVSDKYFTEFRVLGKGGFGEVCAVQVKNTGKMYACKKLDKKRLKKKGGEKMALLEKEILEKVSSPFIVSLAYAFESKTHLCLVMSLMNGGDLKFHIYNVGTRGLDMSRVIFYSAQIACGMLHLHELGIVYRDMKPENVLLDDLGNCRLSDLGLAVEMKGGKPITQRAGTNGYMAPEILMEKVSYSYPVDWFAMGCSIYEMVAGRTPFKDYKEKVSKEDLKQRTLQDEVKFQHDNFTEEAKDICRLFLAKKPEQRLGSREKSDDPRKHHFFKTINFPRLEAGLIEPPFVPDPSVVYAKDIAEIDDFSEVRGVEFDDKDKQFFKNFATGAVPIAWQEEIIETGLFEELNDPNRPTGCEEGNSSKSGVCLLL
Put plainly: Kinome profiling GRK7. Conditions: read-out: Inhibitory activity GRK7; for inhibition at 0.1 µM: 100 nM. The protocol:
(§1) . The kinome-wide selectivity was determined following the methods previously reported by Mohedas et al., ACS Chem Biol 2013, 8, 1291-1302 and Sanvitale et al., PLoS One 2013, 8, e62721.

For a further experiment, the target named is CDK6/cyclinD3 (Homo sapiens, UniProt Q00534). Put plainly: Kinome profiling CDK6/cyclinD3. The note with it: read-out: Inhibitory activity CDK6/cyclinD3; for inhibition at 0.1 µM: 100 nM. The protocol:
as §1

The next experiment deals with BTK (Homo sapiens, UniProt Q06187). Put plainly: Kinome profiling BTK. The note with it: read-out: Inhibitory activity BTK; for inhibition at 0.1 µM: 100 nM. The protocol:
as §1

For another experiment, the target named is T2, DYRK2 (Homo sapiens, UniProt Q92630).
T2 sequence (Q92630 1-601): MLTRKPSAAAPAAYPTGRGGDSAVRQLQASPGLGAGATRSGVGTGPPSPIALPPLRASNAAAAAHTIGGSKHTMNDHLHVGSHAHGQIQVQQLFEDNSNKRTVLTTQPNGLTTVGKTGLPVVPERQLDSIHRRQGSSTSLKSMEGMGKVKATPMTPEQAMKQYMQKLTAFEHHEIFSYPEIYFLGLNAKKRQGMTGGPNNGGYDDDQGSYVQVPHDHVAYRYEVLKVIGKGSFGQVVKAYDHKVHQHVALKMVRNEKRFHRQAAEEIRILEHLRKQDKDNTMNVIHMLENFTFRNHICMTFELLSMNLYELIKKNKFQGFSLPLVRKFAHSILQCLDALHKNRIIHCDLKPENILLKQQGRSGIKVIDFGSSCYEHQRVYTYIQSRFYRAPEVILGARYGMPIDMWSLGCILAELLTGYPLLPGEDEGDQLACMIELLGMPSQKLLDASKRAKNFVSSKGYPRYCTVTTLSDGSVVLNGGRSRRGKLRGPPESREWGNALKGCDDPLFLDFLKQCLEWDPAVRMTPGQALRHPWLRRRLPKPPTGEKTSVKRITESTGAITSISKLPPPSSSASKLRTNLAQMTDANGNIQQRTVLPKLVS
Put plainly: Kinome profiling DYRK2. Conditions: read-out: Inhibitory activity DYRK2; for inhibition at 0.1 µM: 100 nM. The protocol: as §1

A further experiment addresses HIPK1 (Homo sapiens, UniProt Q86Z02). Put plainly: Kinome profiling HIPK1. Conditions: read-out: Inhibitory activity HIPK1; for inhibition at 0.1 µM: 100 nM. The protocol:
as §1

The target of the next experiment is CK1α (Homo sapiens, UniProt P48729). Put plainly: Kinome profiling CK1α. Conditions: read-out: Inhibitory activity CK1α; for inhibition at 0.1 µM: 100 nM. How it is done: as §1
In a further experiment the target is MAPKAPK3 (Homo sapiens, UniProt Q16644). Put plainly: Kinome profiling MAPKAPK3. Conditions: read-out: Inhibitory activity MAPKAPK3; for inhibition at 0.1 µM: 100 nM. The protocol: as §1
For a further experiment, the target named is EGFR (Homo sapiens, UniProt P00533). Put plainly: Kinome profiling EGFR. Conditions: read-out: Inhibitory activity EGFR; for inhibition at 0.1 µM: 100 nM. How it is done: as §1
Another experiment concerns the target DAPK1 (Homo sapiens, UniProt P53355). Put plainly: Kinome profiling DAPK1. The note with it: read-out: Inhibitory activity DAPK1; for inhibition at 0.1 µM: 100 nM. The protocol:
as §1

Chain of CDK6/cyclinD3 (Q00534 whole entry): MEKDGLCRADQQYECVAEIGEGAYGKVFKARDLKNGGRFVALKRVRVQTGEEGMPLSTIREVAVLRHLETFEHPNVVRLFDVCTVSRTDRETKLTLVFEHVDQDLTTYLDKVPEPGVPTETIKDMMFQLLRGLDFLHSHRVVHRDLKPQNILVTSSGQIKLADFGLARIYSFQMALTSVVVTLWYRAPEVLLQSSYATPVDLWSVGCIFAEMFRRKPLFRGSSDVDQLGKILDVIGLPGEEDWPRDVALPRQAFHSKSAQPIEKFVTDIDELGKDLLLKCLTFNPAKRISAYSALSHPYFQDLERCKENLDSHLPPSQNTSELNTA
Chain of CDK6/cyclinD3 (P30281 whole entry partner): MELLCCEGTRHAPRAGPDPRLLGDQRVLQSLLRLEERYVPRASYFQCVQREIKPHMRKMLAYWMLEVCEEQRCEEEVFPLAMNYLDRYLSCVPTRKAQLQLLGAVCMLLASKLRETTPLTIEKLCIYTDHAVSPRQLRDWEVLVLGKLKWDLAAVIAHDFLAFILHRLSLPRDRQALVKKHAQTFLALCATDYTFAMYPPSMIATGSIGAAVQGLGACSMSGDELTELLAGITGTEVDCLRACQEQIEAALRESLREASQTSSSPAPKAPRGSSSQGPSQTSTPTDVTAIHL
Chain of MAPKAPK3 (Q16644 whole entry): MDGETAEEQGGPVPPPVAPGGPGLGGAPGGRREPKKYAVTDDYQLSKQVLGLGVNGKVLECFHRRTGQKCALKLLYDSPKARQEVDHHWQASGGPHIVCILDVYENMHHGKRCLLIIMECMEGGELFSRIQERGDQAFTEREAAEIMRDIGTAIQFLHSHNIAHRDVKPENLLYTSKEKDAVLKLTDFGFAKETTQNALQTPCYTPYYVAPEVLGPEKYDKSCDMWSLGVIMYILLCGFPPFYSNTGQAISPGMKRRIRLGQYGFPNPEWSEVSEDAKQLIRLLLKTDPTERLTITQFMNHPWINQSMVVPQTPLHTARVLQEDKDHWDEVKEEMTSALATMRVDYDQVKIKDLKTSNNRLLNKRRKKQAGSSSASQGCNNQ
Chain of CK1α (P48729 whole entry): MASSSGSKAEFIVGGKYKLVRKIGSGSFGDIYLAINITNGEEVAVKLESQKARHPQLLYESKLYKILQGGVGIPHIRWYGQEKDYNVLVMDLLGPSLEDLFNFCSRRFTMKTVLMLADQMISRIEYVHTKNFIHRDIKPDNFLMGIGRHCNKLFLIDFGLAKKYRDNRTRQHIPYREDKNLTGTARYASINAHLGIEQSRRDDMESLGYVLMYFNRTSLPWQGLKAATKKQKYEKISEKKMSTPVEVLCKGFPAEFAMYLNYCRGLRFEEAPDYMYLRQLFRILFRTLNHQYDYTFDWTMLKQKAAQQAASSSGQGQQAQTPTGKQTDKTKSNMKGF
Chain of EGFR (P00533 25-1210): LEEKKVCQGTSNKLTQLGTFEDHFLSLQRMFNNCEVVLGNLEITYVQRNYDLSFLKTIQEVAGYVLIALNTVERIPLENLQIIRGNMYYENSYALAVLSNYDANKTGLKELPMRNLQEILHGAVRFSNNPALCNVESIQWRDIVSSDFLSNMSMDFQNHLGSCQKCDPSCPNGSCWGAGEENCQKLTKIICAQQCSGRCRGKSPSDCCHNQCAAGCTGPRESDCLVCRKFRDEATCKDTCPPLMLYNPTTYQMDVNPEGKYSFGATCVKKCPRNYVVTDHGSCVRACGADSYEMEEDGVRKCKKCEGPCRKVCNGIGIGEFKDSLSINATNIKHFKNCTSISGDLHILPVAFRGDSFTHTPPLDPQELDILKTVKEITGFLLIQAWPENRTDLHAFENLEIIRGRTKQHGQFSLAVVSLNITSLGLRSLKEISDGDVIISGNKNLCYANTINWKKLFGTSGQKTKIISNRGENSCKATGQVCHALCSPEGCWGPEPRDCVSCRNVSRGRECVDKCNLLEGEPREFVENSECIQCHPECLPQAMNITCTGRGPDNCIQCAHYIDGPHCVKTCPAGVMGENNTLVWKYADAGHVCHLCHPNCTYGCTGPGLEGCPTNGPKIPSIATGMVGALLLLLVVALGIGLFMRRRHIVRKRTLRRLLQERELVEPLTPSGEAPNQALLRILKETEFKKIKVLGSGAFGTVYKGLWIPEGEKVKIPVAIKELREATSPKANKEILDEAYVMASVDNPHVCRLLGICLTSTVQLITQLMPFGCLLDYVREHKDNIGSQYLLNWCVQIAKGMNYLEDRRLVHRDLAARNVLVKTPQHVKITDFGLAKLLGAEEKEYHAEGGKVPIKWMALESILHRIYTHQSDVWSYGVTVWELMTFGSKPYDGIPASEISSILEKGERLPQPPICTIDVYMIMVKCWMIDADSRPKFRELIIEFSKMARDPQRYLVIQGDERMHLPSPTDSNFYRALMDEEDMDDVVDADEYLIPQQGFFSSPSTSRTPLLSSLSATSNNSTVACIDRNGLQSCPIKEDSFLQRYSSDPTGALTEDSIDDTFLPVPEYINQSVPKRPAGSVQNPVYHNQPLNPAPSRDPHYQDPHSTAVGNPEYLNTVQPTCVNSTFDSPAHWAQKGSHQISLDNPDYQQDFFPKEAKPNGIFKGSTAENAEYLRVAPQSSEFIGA
Chain of DAPK1 (P53355 whole entry): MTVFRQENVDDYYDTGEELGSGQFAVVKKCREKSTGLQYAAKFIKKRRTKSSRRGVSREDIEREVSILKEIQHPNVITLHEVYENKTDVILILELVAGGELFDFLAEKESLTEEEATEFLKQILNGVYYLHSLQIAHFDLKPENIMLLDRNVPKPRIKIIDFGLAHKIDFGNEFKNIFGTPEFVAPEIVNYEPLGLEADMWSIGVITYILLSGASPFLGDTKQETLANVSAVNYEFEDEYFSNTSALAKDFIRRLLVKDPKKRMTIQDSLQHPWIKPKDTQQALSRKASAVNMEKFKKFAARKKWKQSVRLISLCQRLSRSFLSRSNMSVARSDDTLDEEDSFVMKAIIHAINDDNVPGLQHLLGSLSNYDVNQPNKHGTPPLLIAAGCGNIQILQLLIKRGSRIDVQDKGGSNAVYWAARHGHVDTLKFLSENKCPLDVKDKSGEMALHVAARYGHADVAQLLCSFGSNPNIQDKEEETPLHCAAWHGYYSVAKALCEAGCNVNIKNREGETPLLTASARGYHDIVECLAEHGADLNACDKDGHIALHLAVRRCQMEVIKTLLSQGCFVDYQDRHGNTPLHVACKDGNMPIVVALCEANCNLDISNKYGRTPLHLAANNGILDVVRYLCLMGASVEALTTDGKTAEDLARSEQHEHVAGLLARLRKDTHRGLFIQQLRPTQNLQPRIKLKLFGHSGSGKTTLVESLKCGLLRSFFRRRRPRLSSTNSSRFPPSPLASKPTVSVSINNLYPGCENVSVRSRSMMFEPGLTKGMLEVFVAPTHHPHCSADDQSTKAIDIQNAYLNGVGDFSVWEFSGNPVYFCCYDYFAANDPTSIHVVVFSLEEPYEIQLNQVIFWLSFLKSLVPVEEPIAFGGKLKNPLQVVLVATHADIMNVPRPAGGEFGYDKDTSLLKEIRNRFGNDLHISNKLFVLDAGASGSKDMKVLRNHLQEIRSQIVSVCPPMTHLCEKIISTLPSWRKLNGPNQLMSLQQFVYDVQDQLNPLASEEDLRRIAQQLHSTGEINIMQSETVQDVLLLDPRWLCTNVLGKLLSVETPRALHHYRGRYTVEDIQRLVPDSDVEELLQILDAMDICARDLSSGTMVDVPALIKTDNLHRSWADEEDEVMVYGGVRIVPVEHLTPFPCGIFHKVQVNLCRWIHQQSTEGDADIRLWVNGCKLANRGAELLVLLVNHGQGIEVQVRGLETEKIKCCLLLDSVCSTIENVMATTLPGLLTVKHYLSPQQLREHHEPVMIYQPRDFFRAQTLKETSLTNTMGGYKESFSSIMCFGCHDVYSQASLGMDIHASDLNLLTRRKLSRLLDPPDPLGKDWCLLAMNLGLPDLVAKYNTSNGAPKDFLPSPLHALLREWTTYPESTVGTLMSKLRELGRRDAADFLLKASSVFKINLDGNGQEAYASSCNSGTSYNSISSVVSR
Chain of BTK (Q06187 whole entry): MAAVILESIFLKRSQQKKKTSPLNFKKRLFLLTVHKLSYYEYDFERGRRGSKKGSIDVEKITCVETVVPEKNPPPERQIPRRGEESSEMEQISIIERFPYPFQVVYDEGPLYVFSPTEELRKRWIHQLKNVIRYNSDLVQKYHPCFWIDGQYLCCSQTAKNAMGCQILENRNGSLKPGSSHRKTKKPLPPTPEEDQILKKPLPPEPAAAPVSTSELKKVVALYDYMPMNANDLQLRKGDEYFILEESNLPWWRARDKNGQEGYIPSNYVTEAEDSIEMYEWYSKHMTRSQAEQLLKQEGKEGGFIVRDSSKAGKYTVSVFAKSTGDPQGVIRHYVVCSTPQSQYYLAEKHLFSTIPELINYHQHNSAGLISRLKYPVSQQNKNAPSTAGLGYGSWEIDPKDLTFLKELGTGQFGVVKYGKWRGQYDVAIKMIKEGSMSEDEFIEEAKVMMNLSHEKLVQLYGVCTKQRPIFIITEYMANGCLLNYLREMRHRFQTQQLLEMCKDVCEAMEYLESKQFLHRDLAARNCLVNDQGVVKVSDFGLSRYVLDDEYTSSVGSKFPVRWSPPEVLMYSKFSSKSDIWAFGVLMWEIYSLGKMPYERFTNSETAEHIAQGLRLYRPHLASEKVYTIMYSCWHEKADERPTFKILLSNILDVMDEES

`COc1cc(-c2cc(-c3ccc(N4CCNCC4)cc3)cnc2C)cc(OC)c1OC` [Compound 10, 1-(4-(6-methyl-5-(3,4,5-trimethoxyphenyl)pyridin-3-yl)phenyl)piperazine]: the inhibition at 0.1 µM at GRK7 came to 3%; at CDK6/cyclinD3, 3%; at BTK, 1%; at DYRK2, 2%; on HIPK1 it was 1%; on CK1α it was 2%. The values for the inhibition at 0.1 µM on MAPKAPK3, at EGFR and at DAPK1 were -1%, 3% and -1%, respectively. Further, the inhibition at 1 µM at GRK7 was 4%; on CDK6/cyclinD3, 1%; on BTK, -2%; at DYRK2, 1%; at HIPK1, 1%; at CK1α it was 7%. In addition, the results for the inhibition at 1 µM at MAPKAPK3, at EGFR and at DAPK1 were 0%, 16% and -1%, respectively.
With `COc1cc(-c2cc(-c3ccc(N4CCNCC4)cc3)cnc2N)cc(OC)c1OC` [Compound 15, 5-(4-(piperazin-1-yl)phenyl)-3-(3,4,5-trimethoxyphenyl)pyridin-2-amine], the inhibition at 0.1 µM at GRK7 was found to be 2%; at CDK6/cyclinD3, 3%; on BTK it was 3%; at DYRK2 it was 2%; on HIPK1, 1%; on CK1α, 5%. Also, the inhibition at 0.1 µM on MAPKAPK3 was 1%; at EGFR, 8%; at DAPK1, 1%. Besides, the inhibition at 1 µM on GRK7 was 0%; at CDK6/cyclinD3 it was 6%; on BTK, 20%; at DYRK2, 0%; at HIPK1, 2%; on CK1α, 18%. The inhibition at 1 µM on MAPKAPK3 amounted to 1%; on EGFR, 37%; on DAPK1 it was 0%.
